Measurements published in patent US20080194640A1, “Optically Active Tetrahydronaphthalene Derivative” (priority 2005, published 2008).
Converted amounts (≈) assume the structure as drawn.

Columns and labels:
[1] = Dissolution test (JP Dissolution Test Method 2, paddle method); assay type: physicochemical; details: JP second fluid 900 ml, paddle 50 rpm, 37° C., about 10 mg based on free form
Method: The compounds obtained in Examples 22, 24 and 25, free base•Form-I crystal, and the racemate of the compound of Example 3 were subjected to a dissolution test, and the dissolution rate was compared. According to this test method, the amount of dissolution relative to the content of each compound in the test solution is expressed in the dissolution rate (%), which was measured over time.
For the method of adding each compound, the compound (about 10 mg based on free form) was precisely weighed and directly added to a vessel. As the test solution, The Japanese Pharmacopoeia second fluid (900 ml) was used, and the test was performed according to The Japanese Pharmacopoeia Dissolution Test Method 2 (Paddle Method) at 50 rpm. The test temperature was 37° C. After the start of the test, solution for dissolution (10 ml) was taken at suitable times, and a test solution (10 ml) heated to 37° C. was soon carefully added for compensation. The collected solution for dissolution was passed through a filter (DISMIC 13HP PTFE (0.45 μm); Toyo Roshi Kaisha). The filtrate in the early stage (5 ml) was removed, the subsequent filtrate (500 μl) was precisely measured, and the dilution solution (water/acetonitrile/trifluoroacetic acid mixture=500:500:1, 500 μl) was accurately added to give a sample solution.
Separately, about 10 mg of the free base•Form-I crystal was precisely weighed, and a dilution solution (water/acetonitrile/trifluoroacetic acid mixture=500:500:1) was added to 50 ml sharp. This solution (2.5 ml) was precisely measured, and a dilution solution (water/acetonitrile/trifluoroacetic acid mixture=500:500:1) was added to 50 ml sharp. This was used as the standard solution of free base•Form-I crystal (10 μg/ml). The sample solution and the standard solution were measured under the HPLC conditions shown below, the peak areas AT and AS of the free base•Form-I crystal in each solution were measured, and the dissolution rate was determined by the following formula.
The nth dissolution rate (%) of free base•Form-I crystal=Wn/W100%×100 • W1: the first dissolution amount (mg) of free base•Form-I crystal
=(900×AT1)×WS/AS/1000 • Wn: the nth (n>1) dissolution amount (mg) of free base•Form-I crystal
={900×ATn+10×(AT1+AT2 . . . +ATn−1)}×WS/AS/1000 • W100%: cast amount (mg) of drug substance • Ws: collected amount (mg) of free base•Form-I crystal standard product • As: peak area of free base•Form-I crystal in standard solution • AT1: peak area of free base•Form-I crystal in sample solution by the first sampling • ATn: peak area of free base•Form-I crystal in sample solution by the nth sampling. • For racemate, the dissolution rate was calculated based on the total value of S form and R form. […]

[2] = Solubility test (Japanese Pharmacopoeia Solution 2); assay type: physicochemical; details: pH 6.8, aqueous buffer, thermodynamic from solid; Japanese Pharmacopoeia Solution 2, 37° C., shaken 30 min; read-out: solubility after 30 min
Method: An adequate amount of a sample was taken, and a test solution (The Japanese Pharmacopoeia Solution 2) was added to each to a concentration of about 1 mg/ml. The sample was dispersed by ultrasonication for 2 min, shaken at 37° C. for 30 min, and the solution was filtered through DISMIC13HP ([…]). The filtrate in the early stage (3 ml) was removed, the subsequent filtrate (500 μl) was precisely measured, and the dilution solution (water/acetonitrile/trifluoroacetic acid mixture=500:500:1, 500 μl) was accurately added to give a sample solution. The sample solution and the standard solution prepared in Experimental Example 5 were subjected to the measurement under the similar HPLC conditions as in Experimental Example 5.

CCn1cc(CN(C(=O)C2CCCc3c(O)cccc32)c2ccc(C(C)C)nc2)cn1 (racemic) [racemate of the compound of Example 3, N-[(1-ethyl-1H-pyrazol-4-yl)methyl]-5-hydroxy-N-(6-isopropylpyridin-3-yl)-1,2,3,4-tetrahydronaphthalene-1-carboxamide, reference compound]
dissolution rate (comparison) [1]: slowest
solubility at 30 min [2]: 31 µg/mL (≈ 74.1 µM)
